Experimental data published in patent publication US20150105252A1, “SUBSTITUTED PYRAZOLES AS HERBICIDES” (E I DU PONT DE NEMOURS AND COMPANY, priority 2013, published 2015).

Legend:
[1] = system: wheat; assay: Test A postemergence; assay type: in vivo, Triticum aestivum
Outline: (§1)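 After sowing in a sand–loam mix, pots received compound preemergence by directed soil spray, or postemergence once plants reached the one- to two-leaf stage (2–10 cm). Formulation contained surfactant in a non-phytotoxic solvent. Injury was scored visually after ~10 greenhouse days, 0–100 scale.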

[2] = system: barnyardgrass; assay: Test A preemergence; assay type: in vivo, Echinochloa crus-galli; settings: preemergence
Outline: as §1

[3] = system: blackgrass; assay: Test C preemergence; assay type: in vivo, Alopecurus myosuroides
Description: (§2) Seeds of plant species selected from blackgrass (Alopecurus myosuroides), ryegrass, Italian (Italian ryegrass, Lolium multiflorum), wheat (winter wheat, Triticum aestivum), galium (catchweed bedstraw, Galium aparine), corn (Zea mays), crabgrass, large (large crabgrass, Digitaria sanguinalis), foxtail, giant (giant foxtail, Setaria faberii), johnsongrass (Sorghum halepense), lambsquarters (Chenopodium album), morningglory (Ipomoea coccinea), nutsedge, yellow (yellow nutsedge, Cyperus esculentus), pigweed (redroot pigweed, Amaranthus retroflexus), ragweed (common ragweed, Ambrosia elation), soybean (Glycine max), barnyardgrass (Echinochloa crus-galli), oilseed rape (Brassica napus), waterhemp (common waterhemp, Amaranthus rudis), oat, wild (wild oat, Avena fatua), kochia (Kochia scoparia), Surinam grass (Brachiaria decumbens), foxtail, green (green foxtail, Setaria viridis), goosegrass (Eleusine indica), bromegrass, downy (downy bromegrass, Bromus tectorum), nightshade (eastern black nightshade, Solanum ptycanthum), cocklebur (common cocklebur, Xanthium strumarium), cupgrass, woolly (woolly cupgrass, Eriochloa villosa), bermudagrass (Cynodon dactylon), sunflower, (common oilseed sunflower, Helianthus annuus), Russian thistle (Salsola kali), and velvetleaf (Abutilon theophrasti) were planted into a blend of loam soil and sand and treated preemergence with test chemicals formulated in a non-phytotoxic solvent mixture which included a surfactant.
(§3) At the same time, plants selected from these crop and weed species and also chickweed (common chickweed, Stellaria media), canarygrass (littleseed canarygrass, Phalaris minor), and deadnettle (henbit deadnettle, Lamium amplexicaule), were planted in pots containing Redi-Earth® planting medium (Scotts Company, 14111 Scottslawn Road, Marysville, Ohio 43041) comprising spaghnum peat moss, vermiculite, wetting agent and starter nutrients and treated with postemergence applications of test chemicals formulated in the same manner. Plants ranged in height from 2 to 18 cm (1- to 4-leaf stage) for postemergence treatments. Treated plants and controls were maintained in a greenhouse for 13 to 15 days, after which time all species were compared to controls and visually evaluated. Plant response ratings, summarized in Table C, are based on a scale of 0 to 100 where 0 is no effect and 100 is complete control. A dash (-) response means no test result.

[4] = system: barnyardgrass; assay: Test C preemergence; assay type: in vivo, Echinochloa crus-galli
Description: as §2, §3

[5] = system: johnsongrass; assay: Test C preemergence; assay type: in vivo, Sorghum halepense
Description: as §2, §3

[6] = system: wheat; assay: Test C preemergence; assay type: in vivo, Triticum aestivum
Description: as §2, §3

[7] = system: velvetleaf; assay: Test A preemergence; assay type: in vivo, Abutilon theophrasti; settings: preemergence
Outline: as §1

[8] = system: crabgrass, large; assay: Test A postemergence; assay type: in vivo, Digitaria sanguinalis
Outline: as §1

[9] = system: corn; assay: Test C preemergence; assay type: in vivo, Zea mays
Description: as §2, §3

[10] = system: wheat; assay: Test A preemergence; assay type: in vivo, Triticum aestivum; settings: preemergence
Outline: as §1

[11] = system: foxtail, giant; assay: Test C preemergence; assay type: in vivo, Setaria faberii
Description: as §2, §3

[12] = system: crabgrass, large; assay: Test A preemergence; assay type: in vivo, Digitaria sanguinalis; settings: preemergence
Outline: as §1

[13] = system: oilseed rape; assay: Test C preemergence; assay type: in vivo, Brassica napus
Description: as §2, §3

[14] = system: corn; assay: Test A preemergence; assay type: in vivo, Zea mays; settings: preemergence
Outline: as §1

[15] = system: pigweed; assay: Test A postemergence; assay type: in vivo, Amaranthus retroflexus
Outline: as §1

[16] = system: velvetleaf; assay: Test C preemergence; assay type: in vivo, Abutilon theophrasti
Description: as §2, §3

[17] = Postemergence, 500 g ai/ha, visual rating after approx. 10 days, 0 to 100 scale (0 no effect, 100 complete control)
[18] = postemergence, 125 g ai/ha, about 10 days, visual rating on 0 to 100 scale (0 no effect, 100 complete control)
[19] = 125 g ai/ha, visual injury, 0 to 100 scale, approx. 10 days
[20] = 500 g ai/ha, visual injury after approx. 10 days, 0 to 100 scale (0 no effect, 100 complete control)
[21] = preemergence, 31 g ai/ha, visual rating, scale 0 to 100 (0 no effect, 100 complete control), 13 to 15 days
[22] = preemergence, 62 g ai/ha, 13 to 15 days, scale 0 to 100, 0 = no effect, 100 = complete control
[23] = preemergence, 125 g ai/ha, scale 0 to 100, 0 is no effect, 100 is complete control
[24] = preemergence, 31 g ai/ha, scale 0 to 100 (0 no effect, 100 complete control), 13 to 15 days
[25] = Postemergence, 500 g ai/ha, 0 to 100 scale (0 no effect, 100 complete control)
[26] = Postemergence, 125 g ai/ha, 0 to 100 scale, 0 no effect, 100 complete control
[27] = Preemergence, 16 g ai/ha, scale 0 to 100

## CCc1cc(C(=O)NC(C)C)nn1Cc1ccnc(C(F)(F)F)c1 [Compound 103]
[1]; [17]
  Wheat plant response rating: 90
[1]; [18]
  Wheat plant response rating: 80
[2]; [19]
  Barnyardgrass plant response rating: 100
[2]; [20]
  Barnyardgrass plant response rating: 100
[3]; Preemergence, 250 g ai/ha
  Plant response rating (scale of 0 to 100), Blackgrass: 100
[3]; [21]
  Blackgrass plant response rating: 100
[3]; [22]
  Plant response rating, Blackgrass: 100
[3]; [23]
  Blackgrass plant response rating: 100
[4]; Preemergence, 250 g ai/ha
  Plant response rating (scale of 0 to 100), Barnyardgrass: 100
[4]; [24]
  Barnyardgrass plant response rating: 100
[4]; [22]
  Plant response rating, Barnyardgrass: 100
[4]; [23]
  Barnyardgrass plant response rating: 100
[5]; Preemergence, 250 g ai/ha
  Plant response rating (scale of 0 to 100), Johnsongrass: 100
[5]; [21]
  Johnsongrass plant response rating: 85
[5]; [22]
  Plant response rating, Johnsongrass: 100
[5]; [23]
  Johnsongrass plant response rating: 100
[6]; Preemergence, 250 g ai/ha
  Plant response rating (scale of 0 to 100), Wheat: 98
[6]; [21]
  Wheat plant response rating: 10
[6]; [22]
  Plant response rating, Wheat: 90
[6]; [23]
  Wheat plant response rating: 95
[7]; [19]
  Velvetleaf plant response rating: 100
[7]; [20]
  Velvetleaf plant response rating: 100
[8]; [17]
  Crabgrass, Large plant response rating: 100
[8]; [18]
  Crabgrass, Large plant response rating: 90
[9]; Preemergence, 250 g ai/ha
  Plant response rating (scale of 0 to 100), Corn: 100
[9]; [21]
  Corn plant response rating: 75
[9]; [22]
  Plant response rating, Corn: 100
[9]; [23]
  Corn plant response rating: 100
[10]; [19]
  Wheat plant response rating: 40
[10]; [20]
  Wheat plant response rating: 100
[11]; Preemergence, 250 g ai/ha
  Plant response rating (scale of 0 to 100), Foxtail, Giant: 100
[11]; [21]
  Foxtail, Giant plant response rating: 100
[11]; [22]
  Plant response rating, Foxtail, Giant: 100
[11]; [23]
  Foxtail, Giant plant response rating: 100
[12]; [19]
  Crabgrass, Large plant response rating: 100
[12]; [20]
  Crabgrass, Large plant response rating: 100
[13]; Preemergence, 250 g ai/ha
  Plant response rating (scale of 0 to 100), Oilseed Rape: 100
[13]; [21]
  Oilseed Rape plant response rating: 100
[13]; [22]
  Plant response rating, Oilseed Rape: 100
[13]; [23]
  Oilseed Rape plant response rating: 100
[14]; [19]
  Corn plant response rating: 70
[14]; [20]
  Corn plant response rating: 90
[15]; [17]
  Pigweed plant response rating: 90
[15]; [18]
  Pigweed plant response rating: 90
[16]; Preemergence, 250 g ai/ha
  Plant response rating (scale of 0 to 100), Velvetleaf: 100
[16]; [21]
  Velvetleaf plant response rating: 100
[16]; [22]
  Plant response rating, Velvetleaf: 100
[16]; [23]
  Velvetleaf plant response rating: 100

## CCCc1cc(C(=O)NCC(F)(F)F)nn1Cc1cc(C(F)(F)F)nn1C [Compound 138]
[1]; [25]
  Wheat plant response rating: 90
[1]; [18]
  Wheat plant response rating: 80
[2]; [19]
  Barnyardgrass plant response rating: 100
[2]; [20]
  Barnyardgrass plant response rating: 100
[7]; [19]
  Velvetleaf plant response rating: 100
[7]; [20]
  Velvetleaf plant response rating: 100
[8]; [25]
  Crabgrass, Large plant response rating: 100
[8]; [18]
  Crabgrass, Large plant response rating: 100
[10]; [19]
  Wheat plant response rating: 80
[10]; [20]
  Wheat plant response rating: 90
[12]; [19]
  Crabgrass, Large plant response rating: 100
[12]; [20]
  Crabgrass, Large plant response rating: 100
[14]; [19]
  Corn plant response rating: 10
[14]; [20]
  Corn plant response rating: 90
[15]; [25]
  Pigweed plant response rating: 100
[15]; [18]
  Pigweed plant response rating: 100

## CCc1cc(C(=O)NCC(F)(F)F)nn1Cc1cc(OC(F)F)nn1C [Compound 206]
[1]; [26]
  Wheat plant response rating: 10
[1]; [25]
  Wheat plant response rating: 20
[2]; 125 g ai/ha, visual injury approx. 10 days after treatment
  Barnyardgrass plant response rating (0 to 100 scale, 0 is no effect, 100 is complete control): 0
[2]; [20]
  Barnyardgrass plant response rating: 90
[15]; [26]
  Pigweed plant response rating: 80
[15]; [25]
  Pigweed plant response rating: 100

## CCc1cc(C(=O)NOC(C)C)nn1Cc1ccnc(C(F)(F)F)c1 [Compound 101]
[1]; [17]
  Wheat plant response rating: 100
[1]; [18]
  Wheat plant response rating: 80
[2]; [19]
  Barnyardgrass plant response rating: 100
[2]; [20]
  Barnyardgrass plant response rating: 100
[3]; [27]
  Plant response rating, Blackgrass: 30
[3]; [21]
  Blackgrass plant response rating: 75
[3]; [22]
  Plant response rating, Blackgrass: 90
[3]; [23]
  Blackgrass plant response rating: 95
[4]; [27]
  Plant response rating, Barnyardgrass: 5
[4]; [24]
  Barnyardgrass plant response rating: 75
[4]; [22]
  Plant response rating, Barnyardgrass: 100
[4]; [23]
  Barnyardgrass plant response rating: 100
[5]; [27]
  Plant response rating, Johnsongrass: 0
[5]; [21]
  Johnsongrass plant response rating: 20
[5]; [22]
  Plant response rating, Johnsongrass: 40
[5]; [23]
  Johnsongrass plant response rating: 75
[6]; [27]
  Plant response rating, Wheat: 0
[6]; [21]
  Wheat plant response rating: 5
[6]; [22]
  Plant response rating, Wheat: 85
[6]; [23]
  Wheat plant response rating: 85
[7]; [19]
  Velvetleaf plant response rating: 40
[7]; [20]
  Velvetleaf plant response rating: 100
[8]; [17]
  Crabgrass, Large plant response rating: 90
[8]; [18]
  Crabgrass, Large plant response rating: 80
[9]; [27]
  Plant response rating, Corn: 0
[9]; [21]
  Corn plant response rating: 0
[9]; [22]
  Plant response rating, Corn: 95
[9]; [23]
  Corn plant response rating: 100
[10]; [19]
  Wheat plant response rating: 70
[10]; [20]
  Wheat plant response rating: 100
[11]; [27]
  Plant response rating, Foxtail, Giant: 15
[11]; [21]
  Foxtail, Giant plant response rating: 80
[11]; [22]
  Plant response rating, Foxtail, Giant: 98
[11]; [23]
  Foxtail, Giant plant response rating: 100
[12]; [19]
  Crabgrass, Large plant response rating: 100
[12]; [20]
  Crabgrass, Large plant response rating: 100
[13]; [27]
  Plant response rating, Oilseed Rape: 75
[13]; [21]
  Oilseed Rape plant response rating: 90
[13]; [22]
  Plant response rating, Oilseed Rape: 98
[13]; [23]
  Oilseed Rape plant response rating: 100
[14]; [19]
  Corn plant response rating: 70
[14]; [20]
  Corn plant response rating: 100
[15]; [17]
  Pigweed plant response rating: 90
[15]; [18]
  Pigweed plant response rating: 60
[16]; [27]
  Plant response rating, Velvetleaf: 0
[16]; [21]
  Velvetleaf plant response rating: 35
[16]; [22]
  Plant response rating, Velvetleaf: 75
[16]; [23]
  Velvetleaf plant response rating: 100
